By inhibition is commonly meant the percentage by which the read-out fell short of the control. Low values mean a weak effect, high ones a strong effect. As a reminder, the Kd is the equilibrium constant for the complex coming apart.

From patent publication US5151502A, “Method for solubilizing membrane receptor proteins” (E. R. Squibb & Sons, Inc., priority 1991, dated 1992) come the findings set out here.

The target in one data set is T1, soluble AII receptor (Bos taurus, UniProt P25104).
T1 construct: from tissue; host or cells: bovine adrenal microsomal membranes, solubilized with CHAPS and treated with SM2 beads
T1 sequence (P25104 1-359): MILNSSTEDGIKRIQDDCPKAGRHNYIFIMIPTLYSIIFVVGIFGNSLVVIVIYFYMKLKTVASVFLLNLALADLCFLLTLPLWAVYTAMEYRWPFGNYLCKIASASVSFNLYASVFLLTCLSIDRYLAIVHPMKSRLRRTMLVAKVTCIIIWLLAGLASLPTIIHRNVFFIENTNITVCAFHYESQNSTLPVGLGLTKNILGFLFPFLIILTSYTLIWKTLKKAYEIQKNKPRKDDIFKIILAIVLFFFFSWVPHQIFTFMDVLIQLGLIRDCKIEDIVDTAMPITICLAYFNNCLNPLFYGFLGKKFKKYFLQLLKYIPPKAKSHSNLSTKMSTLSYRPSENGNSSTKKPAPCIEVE
Kind of data set: [125I]-SI-AII radioligand binding, CHAPS-solubilized SM2-treated BAMM. The note with it: for Inhibition of [125I]-SI-AII binding (in words): competition experiments. Also on record: species or system bovine. Here is the method:
(§1) All procedures were performed at 4° C. unless otherwise noted. Solubilization of specific binding activity was carried out by incubation of BAMM with 5 mM CHAPS. […] The solubilized membranes were centrifuged at 176,000×g (50,000 rpm in a Beckman 80Ti rotor) for 1 hour. The soluble BAMM preparation was stored at […] Prior to assay, soluble BAMM protein was filtered through a 0.22 μm filter and treated with SM2 beads. SM2 treatment proceeded with the addition of 1.1 g (w/v) of the beads and incubation for 1 to 2 hours with constant rotation. The beads were, removed under air pressure. Residual beads were removed from solution by microcentrifugation at 11,000×g (14,000 rpm.) for 15 minutes.
Assays were conducted in 1.2 ml tubes in a total assay volume of 200 μl. The incubation mixture contained 0.1 to 0.2 nM [^125 I]-SI-AII and incubation buffer (50 mM Tris, pH 7.4 at 4° C., 150 mM sodium chloride, 0.1% bovine serum albumin, 0.24 TI units/ml aprotinin, 0.1 mg/ml 1,10-phenanthroline). The binding reaction was initiated by the addition of 20 to 100 μg of BAMM or soluble BAMM diluted in incubation buffer. Binding proceeded at 37° C. for 2 hours with constant agitation. Reactions were terminated and bound and free radioligand separated by rapid filtration over double-thickness glass-fiber filters which had been presoaked in 0.3% polyethyleneimine in 50 mM Tris (pH 7.4) utilizing a Tomtec™96-well cell harvester set at four pulse washes. Filters were counted in a RIASTAT gamma counter or washed twice, microwave-dried, and counted in a Pharmacia 1205 Beta Plate flatbed scintillation counter in the presence of a dry scintillant (Pharmacia MeltiLex Scintillator Sheets™). Dissociation constants and slope factors were calculated according to Cheng and Prusoff (Biochem. Pharmacol. 22, 3099-3109; 1973) and Hill (J. Physiol. 40, 109-224; 1910), respectively. analysis of saturation binding data was performed using nonlinear regression least-square curve fitting to the nontransformed data or by Scathard transformation (Ann. N.Y.Acad. Sci., 51, 660672;1949).

Another data set concerns AII receptor. Nature of the data set: Recovery of solubilized [125I]-SI-AII binding activity from BAMM. Also on record: species or system bovine. The note with it: DTNB 0.1 mM added to BAMM before solubilization; means ± standard errors, n = 4. The method, then:
as §1
Assays were conducted in 1.2 ml tubes in a total assay volume of 200 μl. […] Filters were counted in a RIASTAT gamma counter or washed twice, microwave-dried, and counted in a Pharmacia 1205 Beta Plate flatbed scintillation counter in the presence of a dry scintillant (Pharmacia MeltiLex Scintillator Sheets™). Dissociation constants and slope factors were calculated according to Cheng and Prusoff (Biochem. Pharmacol. 22, 3099-3109; 1973) and Hill (J. Physiol. 40, 109-224; 1910), respectively. analysis of saturation binding data was performed using nonlinear regression least-square curve fitting to the nontransformed data or by Scathard transformation (Ann. N.Y.Acad. Sci., 51, 660672;1949).

A further data set addresses T2, membrane AII receptor (Bos taurus, UniProt P25104).
T2 construct: Aliquots (5 mg/ml) of the bovine adrenal microsomal membranes (BAMM) were stored; from tissue; host or cells: bovine adrenal, microsomal membranes
T2 sequence (P25104 1-359): T1 sequence (P25104 1-359)
Kind of data set: [125I]-SI-AII radioligand binding, bovine adrenal microsomal membranes (BAMM).

Structures are written as SMILES.

Method for membrane AII receptor: All the procedures were performed at 4° C. unless otherwise indicated. Bovine adrenals were cleaned of connective tissue and fat and were minced in 10 volumes of homogenization buffer (10 mM Tris, pH 7.4 at 4° C. containing 0.25M sucrose and 1 mM ethylenediaminetetraacetic acid). The minced tissue was homogenized using a Brinkmann polytron homogenizer (five ten second bursts at setting #8). The homogenate was centrifuged at 3,000×g (5,000 rpm) in a Sorvall SS34 rotor) for 10 minutes and the supernatant filtered through 3 layers of cheesecloth. The filtrate was centrifuged at 12,000×g (10,000 rpm in a Sorvall SS34 rotor) for 15 minutes. […]

As to `O[C@H](CS)[C@H](O)CS` (racemic) [DTT, dithiothreitol], the inhibition at 5000 µM at soluble AII receptor is approximately 90%. The IC50 at soluble AII receptor (read-out: DTT concentration giving 50% reduction in ligand activity) is 500 to 1000 µM.

On to `O=C(O)c1cc(SSc2ccc([N+](=O)[O-])c(C(=O)O)c2)ccc1[N+](=O)[O-]` [DTNB, dithionitrobenzoic acid], for which the “% recovery of solubilized AII receptor” value in the data set on AII receptor is listed as 11.5 ± 1.5%.

For `CCCCc1nc(Cl)c(CO)n1Cc1ccc(-c2ccccc2-c2nn[nH]n2)cc1` [DuP 753], the Kd was found to be 0.202 ± 0.022 µM on membrane AII receptor and 2.54 µM at soluble AII receptor. The “Slope Factor” value was 0.91 ± 0.03 at membrane AII receptor (BAMM, means ± SEM, n = 3 to 5) and 0.51 ± 0.05 at soluble AII receptor (Soluble preparation, means ± SEM, n = 3 to 5). Besides, the “Inhibition of [125I]-SI-AII binding (in words)” value on soluble AII receptor (SM2-treated soluble receptors) was “complete”.

In the case of `Cc1cc(Cn2cnc3c2CC(C(=O)O)N(C(=O)C(c2ccccc2)c2ccccc2)C3)ccc1N` (stereo not shown) [PD123177], the “Inhibition of [125I]-SI-AII binding (in words)” value on soluble AII receptor (SM2-treated soluble receptors) was “negligible”. On soluble AII receptor (SM2-treated soluble receptors, read-out: inhibition constant), the Ki is more than 100 µM.
